These molecules were tested against DNA-PK (Homo sapiens (Human), UniProt P78527) (assay: DNA-PK/biochemical assay (FlashPlate kinase assay)). Conditions: 5 μM ATP, 90 min, room temperature; read-out: Binding DNA-PK IC50.
Method: […] To this end, 1.5 μg of the DNA-PK/protein complex and 100 ng of biotinylated substrate, such as, for example, PESQEAFADLWKK biotin-NH2 (“biotin-DNA-PK peptide”), in a total volume of 36.5 μl (34.25 mM HEPES/KOH, 7.85 mM Tris-HCl, 68.5 mM KCl, 5 μM ATP, 6.85 mM MgCl2, 0.5 mM EDTA, 0.14 mM EGTA, 0.69 mM DTT, pH 7.4), were incubated at room temperature for 90 min with 500 ng of DNA from calf thymus, 0.1 μCi of 33P-ATP and 1.8% of DMSO per well with or without the test compound. The reaction was stopped using 50 μl/well of 200 mM EDTA. After incubation for a further 30 min at room temperature, the liquid was removed. Each well was washed three times with 100 μl of 0.9% sodium chloride solution. A non-specific reaction (blank value) was determined using 10 μM of a proprietary kinase inhibitor. The radioactivity measurement was carried out by means of a TopCount. IC50 values were calculated in RS1. • Literature: Kashishian et al. (2003) Molecular Cancer Therapeutics 1257.

Row | SMILES | IC50
1 | c1nc(N2CCCCC2)c2ccc(N3CCOCC3)cc2n1 [compound 1, 7-Morpholin-4-yl-4-piperidin-1-yl-quinazoline] | < 100 nM
2 | Clc1nc(N2CCCCC2)c2ccc(N3CCOCC3)cc2n1 [compound 2] | < 100 nM
3 | COc1ccc(C2CCCN(c3ncnc4cc(N5CCOCC5)ccc34)C2)cc1 (stereo not shown) [compound 3, 4-[3-(4-Methoxy-phenyl)piperidin-1-yl]-7-morpholin-4-yl-quinazoline] | 100 to 500 nM
4 | c1ccc(C2CCCN(c3ncnc4cc(N5CCOCC5)ccc34)C2)cc1 (stereo not shown) [compound 4, 7-Morpholin-4-yl-4-(3-phenylpiperidin-1-yl)quinazoline] | < 100 nM
5 | c1ccc([C@@H]2CCCN(c3ncnc4cc(N5CCOCC5)ccc34)C2)cc1 [compound 5, 7-Morpholin-4-yl-4-((S)-3-phenyl-piperidin-1-yl)-quinazoline] | 100 to 500 nM
6 | c1ccc([C@H]2CCCN(c3ncnc4cc(N5CCOCC5)ccc34)C2)cc1 [compound 6, 7-Morpholin-4-yl-4-((R)-3-phenyl-piperidin-1-yl)-quinazoline] | < 100 nM
7 | c1nc(N2CCCC2)c2ccc(N3CCOCC3)cc2n1 [compound 7, 7-Morpholin-4-yl-4 pyrrolidin-1-yl-quinazoline] | 100 to 500 nM
8 | c1nc(N2CCCCCC2)c2ccc(N3CCOCC3)cc2n1 [compound 8, 4-Azepan-1-yl-7-morpholin-4-yl-quinazoline] | 100 to 500 nM
9 | Fc1ccc2[nH]cc(C3CCCN(c4ncnc5cc(N6CCOCC6)ccc45)C3)c2c1 (stereo not shown) [compound 9, 4-[3-(5-Fluoro-1H-indol-3-yl)piperidin-1-yl]-7-morpholin-4 ylquinazoline] | 500 to 1000 nM
10 | c1nc(N2CCCC(CC3CCCCC3)C2)c2ccc(N3CCOCC3)cc2n1 (stereo not shown) [compound 10] | 500 to 1000 nM
11 | c1ccc(C[C@@H]2CCCN(c3ncnc4cc(N5CCOCC5)ccc34)C2)cc1 [compound 11, 4-((S)-3-Benzyl-piperidin-1-yl)-7-morpholin-4-yl-quinazoline] | 100 to 500 nM
12 | CC1CCCN(c2ncnc3cc(N4CCOCC4)ccc23)C1 (stereo not shown) [compound 12, 4-(3-Methylpiperidin-1-yl)-7-morpholin-4-ylquinazoline] | 100 to 500 nM
13 | c1ccn(CC2CCCN(c3ncnc4cc(N5CCOCC5)ccc34)C2)c1 (stereo not shown) [compound 13, 7-Morpholin-4-yl-4-(3-pyrrol-1-ylmethyl-piperidin-1-yl)-quinazoline] | < 100 nM
14 | c1ccc2sc(C3CCCN(c4ncnc5cc(N6CCOCC6)ccc45)C3)nc2c1 (stereo not shown) [compound 14, 4-(3-Benzothiazol-2-ylpiperidin-1-yl)-7-morpholin-4-yl-quinazoline] | < 100 nM
15 | OC1(c2ccccc2)CCCN(c2ncnc3cc(N4CCOCC4)ccc23)C1 (stereo not shown) [compound 15, 1-(7-Morpholin-4-yl-quinazoline-4-yl)-3-phenylpiperidin-3-ol] | 500 to 1000 nM
16 | O=C(c1ccc(F)cc1)C1CCCN(c2ncnc3cc(N4CCOCC4)ccc23)C1 (stereo not shown) [compound 16, (4-Fluorophenyl)-[1-(7-morpholin-4-yl-quinazoline-4-yl)-piperidin-3-yl]-methanone] | 100 to 500 nM
17 | NC(=O)C1CCCN(c2ncnc3cc(N4CCOCC4)ccc23)C1 (stereo not shown) [compound 17, 1-(7-Morpholin-4-yl-quinazoline-4-yl)-piperidin-3-carboxamide] | 500 to 1000 nM
18 | CCOCC1CCCN(c2ncnc3cc(N4CCOCC4)ccc23)C1 (stereo not shown) [compound 18, 4-(3-Ethoxymethyl-piperidin-1-yl)-7-morpholin-4-yl-quinazoline] | 100 to 500 nM
19 | Cc1noc(C2CCCN(c3ncnc4cc(N5CCOCC5)ccc34)C2)n1 (stereo not shown) [compound 19, 4-[3-(3-Methyl-1,2,4-oxadiazol-5-yl)-piperidin-1-yl]-7-morpholin-4-yl-quinazoline] | 500 to 1000 nM
20 | O=C(C1CCCN(c2ncnc3cc(N4CCOCC4)ccc23)C1)N1CCCCC1 (stereo not shown) [compound 20, [1-(7-Morpholin-4-yl-quinazoline-4-yl)-piperidin-3-yl]-piperidin-1-yl-methanone] | 100 to 500 nM
21 | c1nc(N2CCCC(CN3CCOCC3)C2)c2ccc(N3CCOCC3)cc2n1 (stereo not shown) [compound 21, 7-Morpholin-4-yl-4-(3-morpholin-4-ylmethylpiperidin-1-yl)quinazoline] | 500 to 1000 nM
22 | COc1cccc(C2CCCN(c3ncnc4cc(N5CCOCC5)ccc34)C2)c1 (stereo not shown) [compound 22, 4-[3-(3-Methoxy-phenyl)piperidin-1-yl]-7-morpholin-4-yl-quinazoline] | < 100 nM
23 | c1cn(CC2CCCN(c3ncnc4cc(N5CCOCC5)ccc34)C2)cn1 (stereo not shown) [compound 23] | < 100 nM
24 | c1ccc2[nH]c(C3CCCN(c4ncnc5cc(N6CCOCC6)ccc45)C3)nc2c1 (stereo not shown) [compound 24, 4-[3-(1H-Benzo-imidazol-2-yl)-piperidin-1-yl]-7-morpholin-4-yl-quinazoline] | 500 to 1000 nM
25 | Clc1nc(N2CCCC(Cn3ccnc3)C2)c2ccc(N3CCOCC3)cc2n1 (stereo not shown) [compound 25, 2-Chloro-4-(3-imidazol-1-ylmethyl-piperidin-1-yl)-7-morpholin-4-yl-quinazoline] | < 100 nM
26 | c1ccc2oc(C3CCCN(c4ncnc5cc(N6CCOCC6)ccc45)C3)nc2c1 (stereo not shown) [compound 26, 4-(3-Benzoxazol-2-ylpiperidin-1-yl)-7-morpholin-4-yl-quinazoline] | 100 to 500 nM

Further lines, results first:

Row | IC50 | SMILES
27 | < 100 nM | Cc1cccc(C2CCCN(c3ncnc4cc(N5CCOCC5)ccc34)C2)c1 (stereo not shown) [compound 27, 7-Morpholin-4-yl-4-(3-m-tolylpiperidin-1-yl)quinazoline]
28 | 100 to 500 nM | FC(F)(F)c1cccc(C2CCCN(c3ncnc4cc(N5CCOCC5)ccc34)C2)c1 (stereo not shown) [compound 28, 7-Morpholin-4-yl-4-[3-(3-trifluoromethyl-phenyl)piperidin-1-yl]quinazoline]
29 | < 100 nM | Cn1ccnc1CC1CCCN(c2ncnc3cc(N4CCOCC4)ccc23)C1 (stereo not shown) [compound 29, 4-[3-(1-Methyl-1H-imidazol-2-ylmethyl)-piperidin-1-yl]-7-morpholin-4-yl-quinazoline]
30 | < 100 nM | Clc1nc(N2CCCC(Cn3cccc3)C2)c2ccc(N3CCOCC3)cc2n1 (stereo not shown) [compound 30, 2-Chloro-7-morpholin-4-yl-4-(3-pyrrol-1-ylmethyl-piperidin-1-yl)-quinazoline]
31 | < 100 nM | c1cnc(CC2CCCN(c3ncnc4cc(N5CCOCC5)ccc34)C2)nc1 (stereo not shown) [compound 31]
32 | < 100 nM | c1csc(CC2CCCN(c3ncnc4cc(N5CCOCC5)ccc34)C2)n1 (stereo not shown) [compound 32]
33 | < 100 nM | c1csc(CC2CCCN(c3ncnc4cc(N5CCOCC5)ccc34)C2)c1 (stereo not shown) [compound 33]
34 | > 1000 nM | Cc1nc(N2CCCCC2)c2ccc(N3CCOCC3)cc2n1 [compound 34, 2-Methyl-7-morpholin-4-yl-4-piperidin-1-yl-quinazoline]
35 | 100 to 500 nM | c1ccc2sc(CC3CCCN(c4ncnc5cc(N6CCOCC6)ccc45)C3)cc2c1 (stereo not shown) [compound 35, 4-(3-Benzo[b]-thiophen-2-ylmethyl-piperidin-1-yl)-7-morpholin-4-yl-quinazoline]
36 | < 100 nM | Clc1nc(N2CCCC(Cc3nccs3)C2)c2ccc(N3CCOCC3)cc2n1 (stereo not shown) [compound 36, 2-Chloro-7-morpholin-4-yl-4-(3-thiazol-2-ylmethyl-piperidin-1-yl)-quinazoline]
37 | 100 to 500 nM | C1=C(c2cccs2)CN(c2ncnc3cc(N4CCOCC4)ccc23)CC1 [compound 37, 7-Morpholin-4-yl-4-(5-thiophen-2-yl-3,6-dihydro-2H-pyridin-1-yl)quinazoline]
38 | < 100 nM | COc1cccc(C(O)C2CCCN(c3ncnc4cc(N5CCOCC5)ccc34)C2)c1 (stereo not shown) [compound 38, (3-Methoxyphenyl)-[1-(7-morpholin-4-yl-quinazolin-4-yl)-piperidin-3-yl]-methanol]
39 | > 1000 nM | COc1nc(N2CCCCC2)c2ccc(N3CCOCC3)cc2n1 [compound 39, 2-Methoxy-7-morpholin-4-yl-4-piperidin-1-yl-quinazoline]
40 | < 100 nM | c1csc(C2CCCN(c3ncnc4cc(N5CCOCC5)ccc34)C2)c1 (stereo not shown) [compound 40, 7-Morpholin-4-yl-4-(3-thiophen-2-yl-piperidin-1-yl)-quinazoline]
41 | < 100 nM | COc1cccc(CC2CCCN(c3ncnc4cc(N5CCOCC5)ccc34)C2)c1 (stereo not shown) [compound 41, 4-[3-(3-Methoxy-benzyl)piperidin-1-yl]-7-morpholin-4-yl-quinazoline]
42 | 100 to 500 nM | COc1ccc(CC2CCCN(c3ncnc4cc(N5CCOCC5)ccc34)C2)cc1OC (stereo not shown) [compound 42, 4[3-(3,4-Dimethoxy-benzyl)piperidin-1-yl]-7-morpholin-4-yl-quinazoline]
43 | 100 to 500 nM | c1ccc2sc(CC3CCCN(c4ncnc5cc(N6CCOCC6)ccc45)C3)nc2c1 (stereo not shown) [compound 43, 4-(3-Benzothiazol-2-ylmethylpiperidin-1-yl)-7-morpholin-4-yl-quinazoline]
44 | < 100 nM | c1nc(N2CCCC(Cc3ccsc3)C2)c2ccc(N3CCOCC3)cc2n1 (stereo not shown) [compound 44]
45 | < 100 nM | OC(c1ccsc1)C1CCCN(c2ncnc3cc(N4CCOCC4)ccc23)C1 (stereo not shown) [compound 45, [1-(7-Morpholin-4-yl-quinazolin-4-yl)-piperidin-3-yl]-thiophen-3-yl-methanol]
46 | < 100 nM | OC(c1nccs1)C1CCCN(c2ncnc3cc(N4CCOCC4)ccc23)C1 (stereo not shown) [compound 46, [1-(7-Morpholin-4-yl-quinazolin-4-yl)-piperidin-3-yl]-thiazol-2-yl-methanol]

From patent US9126952B2, “Morpholinylquinazolines” (Merck Patent GmbH, priority 2010, dated 2015)
